In patent US4283420A, “Pharmaceutically active cyclohexyl compounds and their preparation” (Labaz, priority 1978, dated 1981):
Where two headings read alike, the source gives them in different places.

How the values were obtained:
male OFl mice = assay: Pentetrazole seizure (mortality after i.p. pentetrazole 125 mg/kg); format: in vivo; conditions: for ED50: Mus musculus, po, 0.25 h
Method: This test was carried out on batches of 10 male OFl mice which had fasted since the day before and were placed in individual cages, in accordance with the method of Cheymol (J.) Acta. Pharmacol., (1950), 2, 1-55.
The treatments were carried out perorally 15 minutes before intraperitoneal (i.p.) injection of a solution of pentetrazole (125 mg/kg).
The mortality is recorded 3 hours after this injection.
It is to be noted that the 50% effective doses (ED50), where these have been determined, were calculated by the method of MOOD (J. Am. Statist. Assoc., (1965), 60, 967-78).

male Swiss mice = assay: Maximum electrical seizure; format: in vivo; conditions: for ED50: Mus musculus, po, 0.25 h, read-out: Maximum electrical seizure, ED50; for Maximum electrical seizure, % protection: peroral, 15 minutes
Text: Maximum electrical seizure
The technique used is that recommended by GOODMAN (L. S.), SING-GREWALD (M.), BROWN (V. C.) and […] (E. A.), Am.
The animals tested are male Swiss mice grouped into batches of 10. The normal threshold of the electric shock which is capable of causing tonic extension of the front paws is first determined for each animal.

mouse = assay: Ouabain seizure; format: in vivo; conditions: po, 0.25 h, read-out: Ouabain seizure, ED50
Method: Ouabain was administered intra-ventricularly at a dose of 5 γ/mouse in a volume of 0.02 ml.

mice [1] = assay: β-Mercaptopropionic acid seizure; format: in vivo; conditions: for ED50: Mus musculus, po, 0.25 h, read-out: β-Mercaptopropionic acid seizure, ED50; for β-Mercaptopropionic acid seizure, % protection: at 400 mg/kg, peroral, 15 minutes
Method: β-Mercaptopropionic acid seizure
β-Mercaptopropionic acid is an inhibitor of glutamatedecarboxylase (GAD), which is an enzyme which catalyses the conversion of glutamate to γ-aminobutyric acid (GABA). Its action thus manifests itself in a lowering of the GABA level and the occurrence of general tonico-clonic seizures 3 to 4 minutes after it has been administered. β-Mercaptopropionic acid was administered to mice intraperitoneally at a dose of 40 mg/kg.

mice [2] = assay: Anoxia as a result of confinement; format: in vivo; conditions: Mus musculus, ip, read-out: Anoxia as a result of confinement, % increase in the survival time
Method: Anoxia as a result of confinement
Mice (in batches of 20) are placed in a 200 cm^3 hermetically sealed chamber (a wide-mouthed glass vessel) which is under normal pressure and has a normal content of atmospheric oxygen. All of the treatments are administered intraperitoneally immediately before introduction into the chamber. The animal is considered to be dead at the moment when breathing stops.
Since the wide-mouthed vessels chosen are very small, the motor activity of the animals is extremely low and this eliminates, in principle, the possibility of a positive result due to a sedative effect.
Therefore, the percentage increase in the survival time of the treated animals is noted, relative to the batch.

[3] = Sedative activity: Rotarod test; format: in vivo, mice (male); conditions: mouse, in vivo, po
Method: (§1) This test is used for the purpose of assessing the ability of the animals to coordinate their movements. It uses a wooden cylinder which has a diameter of 4.8 cm and revolves at a speed of 4 revolutions/minute. The test is carried out on male mice weighing about 22 g. The products are administered perorally (p.o.) to batches of 10 animals per dose. The animals are placed on the apparatus 15 minutes after administration of the product. The percentage of mice which lose their equilibrium reflex, that is to say which become incapable of retaining their balance on the cylinder for a period of 2 minutes, is noted.
(§2) Using the regression straight line method, a 50% neurotoxic dose (NTD 50) is calculated, which thus expresses the average level of the first neuromuscular effects under the influence of the studied product.

Acute toxicity, peroral = conditions: mouse, in vivo, po
Method: In order to locate the boundary separating the pharmacological effects from the toxicity of the products, a very approximate assessment of the toxicity was carried out on mice (batches of 10 animals) after peroral treatment.

male mice = assay: Sedative activity: Rotarod test; format: in vivo; conditions: at 600 mg/kg, peroral, mice
Method: as §1, §2

[4] = read-out: Pentetrazole seizure, ED50
[5] = peroral, 15 minutes after administration, male mice, read-out: Sedative activity, Rotarod test, ED50
[6] = read-out: DE 50, Pentetrazole crisis test
[7] = Table III, mice, peroral, 15 minutes after administration, read-out: DE 50, Pentetrazole crisis test
[8] = Table IV, mice, measured 15 minutes after peroral treatment, read-out: Pentetrazole seizure, ED50
[9] = mice, measured 15 minutes after peroral treatment
[10] = ouabain 5 γ/mouse intra-ventricularly, measured 15 minutes after peroral treatment
[11] = β-mercaptopropionic acid 40 mg/kg i.p., mice, 15 minutes after peroral treatment
[12] = at 50 mg/kg, intraperitoneal, mice

Structure (SMILES) | ED50 (male OFl mice; [4]) | ED50 (male OFl mice; [8]) | ED50 (male Swiss mice; [9]) | ED50 (mouse; [10]) | ED50 (mice [1]; [11]) | TD50 at 0.25 h [3] | also measured
CC1(C(=O)[O-])CCCCC1.[Na+] | 317 mg/kg | – | – | – | – | – | ED50 (male Swiss mice): 563 mg/kg; ED50 (mouse; Mus musculus): 600 mg/kg; ED50 (mice [1]): 118 mg/kg; ILS at 160 mg/kg (mice [2]): 29%; TD50 at 0.25 h [3, 5]: 1020 mg/kg; mortality (Acute toxicity, peroral; at 1882 mg/kg, peroral, mice): 50%
O=C([O-])C1(Cc2ccccc2)CCCCC1.[Na+] | 116 mg/kg | – | – | – | – | – | ED50 (male Swiss mice): 431 mg/kg; ED50 (mouse; Mus musculus): 638 mg/kg; ED50 (mice [1]): 257 mg/kg; ILS at 170 mg/kg (mice [2]): 44%; TD50 at 0.25 h [3, 5]: 650 mg/kg; mortality (Acute toxicity, peroral; 1000 mg/kg, at 1,000 mg/kg, peroral, mice): 20%
O=C([O-])C1(CC(Br)=CBr)CCCCC1.[Na+] | 240 mg/kg | – | – | – | – | – | Maximum electrical seizure, % protection (male Swiss mice; at 600 mg/kg, mice): 60%; ED50 (mouse; Mus musculus): > 900 mg/kg; ED50 (mice [1]): 340 mg/kg; ILS at 190 mg/kg (mice [2]): 50%; TD50 at 0.25 h [3, 5]: 280 mg/kg; mortality (Acute toxicity, peroral; at 600 mg/kg, peroral, mice): 0%
CCCC(CCC)C(=O)[O-].[Na+] [Depakene, sodium dipropyl-acetate, reference compound] | – | – | – | – | – | – | ED50 (male OFl mice; [6]): 142 mg/kg
CCC1(C(=O)O)CCCCC1 [Example 15] | – | – | – | – | – | – | ED50 (male OFl mice; [7]): 120 mg/kg
CC(C)C1(C(=O)O)CCCCC1 [Example 16] | – | – | – | – | – | – | ED50 (male OFl mice; [7]): 110 mg/kg
C=C(Cl)CC1(C(N)=O)CCCCC1 [Example 24, 1-(2'-chloro-2'-propenyl)-1-cyclohexyl-carboxamide] | – | 57 mg/kg | 101 mg/kg | 96 mg/kg | 64 mg/kg | 125 mg/kg | ILS at 50 mg/kg (mice [2]; [12]): 0%; mortality (Acute toxicity, peroral; 500 mg/kg): 20%
NC(=O)C1(CBr)CCCCC1 [Example 26] | 75 mg/kg | – | – | – | 46 mg/kg | – | ILS at 50 mg/kg (mice [2]): 6%; TD50 at 0.25 h [3, 5]: 125 mg/kg; mortality (Acute toxicity, peroral; at 500 mg/kg, peroral, mice): 0%
C=CCC1(C(N)=O)CCCCC1 [Example 27] | – | 20 mg/kg | 55 mg/kg | 66 mg/kg | 38 mg/kg | 75 mg/kg | ILS at 50 mg/kg (mice [2]; [12]): 0%; mortality (Acute toxicity, peroral; 500 mg/kg): 100%
CC1(C(N)=O)CCCCC1 [Example 28] | – | 178 mg/kg | 311 mg/kg | – | 100 mg/kg | 425 mg/kg | ILS at 70 mg/kg (mice [2]; at 70 mg/kg, intraperitoneal, mice): 30%; mortality (Acute toxicity, peroral; 752 mg/kg): 50%
CC(C)C1(C(N)=O)CCCCC1 [Example 29] | – | 15 mg/kg | 70 mg/kg | 31 mg/kg | 12 mg/kg | 35 mg/kg | ILS at 25 mg/kg (mice [2]; at 25 mg/kg, intraperitoneal, mice): 16%; mortality (Acute toxicity, peroral; 500 mg/kg): 100%
C#CCC1(C(N)=O)CCCCC1 [Example 30] | 65 mg/kg | – | 91 mg/kg | 170 mg/kg | – | – | TD50 at 0.25 h [3, 5]: 125 mg/kg; mortality (Acute toxicity, peroral; at 500 mg/kg, peroral, mice): 20%
COCC1(C(N)=O)CCCCC1 [Example 31] | – | 195 mg/kg | 200 mg/kg | 250 mg/kg | – | 300 mg/kg | mortality (Acute toxicity, peroral; 500 mg/kg): 0%
NC(=O)C1(Cc2ccccc2)CCCCC1 [Example 32] | – | 32 mg/kg | 115 mg/kg | 200 mg/kg | 200 mg/kg | 125 mg/kg | ILS at 50 mg/kg (mice [2]; [12]): 0%
O=C(O)C1(CC#CBr)CCCCC1 [Example 35, 1-(3-bromo-2-propynyl)-1-cyclohexyl-carboxylic acid] | – | 335 mg/kg | – | – | – | 245 mg/kg | Maximum electrical seizure, % protection (male Swiss mice; at 735 mg/kg, mice): 20%; β-Mercaptopropionic acid seizure, % protection (mice [1]; mice): 30%; mortality (Acute toxicity, peroral; at 735 mg/kg, peroral, mice): 0%
C=CC1(C(=O)[O-])CCCCC1.[Na+] [Example 37, Sodium 1-vinyl-1-cyclohexyl-carboxylate] | 95 mg/kg | – | – | – | – | – | –
CC(C)(Cl)C1(C(N)=O)CCCCC1 [Example 39, 1-(1-chloro-1-methylethyl)-1-cyclohexyl-carboxamide] | – | 66 mg/kg | – | – | 63 mg/kg | – | –
CC(C)(C)C1(C(=O)[O-])CCCCC1.[Na+] [Example 41, Sodium 1-tert-butyl-1-cyclohexyl-carboxylate] | – | – | – | – | – | – | ED50 (male OFl mice; [6]): 131 mg/kg
CC(C)(C)C1(C(N)=O)CCCCC1 [Example 42, 1-tert-butyl-1-cyclohexyl-carboxamide] | – | 79 mg/kg | – | – | 95 mg/kg | – | –
CC(=O)CC1(C(=O)[O-])CCCCC1.[Na+] [Example 46, Sodium 1-acetonyl-1-cyclohexyl-carboxylate] | 300 mg/kg | – | – | > 900 mg/kg | 270 mg/kg | – | Rotarod test, % of failures (male mice): 0%
O=C(CBr)CC1(C(=O)O)CCCCC1 [Example 47, 1-bromoacetonyl-1-cyclohexyl-carboxylic acid] | – | – | – | – | – | – | Pentetrazole seizure, % protection (male OFl mice; at 395 mg/kg, peroral, 15 minutes, mice): 0%; β-Mercaptopropionic acid seizure, % protection (mice [1]; mice): 30%; ILS at 130 mg/kg (mice [2]; at 130 mg/kg, intraperitoneal, mice): 24%; mortality (Acute toxicity, peroral; at 790 mg/kg, peroral, mice): 30%
NC(=O)C1(CCOc2ccccc2)CCCCC1 [Example 54, 1-(2-phenoxyethyl)-1-cyclohexyl-carboxamide] | – | 198 mg/kg | – | – | 86 mg/kg | 160 mg/kg | –
COCC1(C(=O)O)CCCCC1 [Example 55] | – | 190 mg/kg | – | 950 mg/kg | – | – | Maximum electrical seizure, % protection (male Swiss mice; at 190 mg/kg, mice): 0%; Rotarod test, % of failures (male mice): 0%
